Active and inactive are the calls of the source. No rule for the calls is given here.
System: CCRIS mutagenicity, Ames/micronucleus/aberration tests
Assay: CCRIS mutagenicity studies
[1] = Test System: AMES SALMONELLA TYPHIMURIUM, Strain/Indicator: TA100, Metabolic Activation: NONE, Method: STANDARD PLATE
[2] = Test System: AMES SALMONELLA TYPHIMURIUM, Strain/Indicator: TA98, Metabolic Activation: NONE, Method: PREINCUBATION
[3] = Test System: AMES SALMONELLA TYPHIMURIUM, Strain/Indicator: TA100, Metabolic Activation: NONE, Method: PREINCUBATION
[4] = Test System: AMES SALMONELLA TYPHIMURIUM, Strain/Indicator: TA98, Metabolic Activation: NONE, Method: STANDARD PLATE
[5] = Test System: AMES SALMONELLA TYPHIMURIUM, Strain/Indicator: TA98, Metabolic Activation: RAT, LIVER, S-9, AROCLOR 1254, Method: STANDARD PLATE
[6] = Test System: AMES SALMONELLA TYPHIMURIUM, Strain/Indicator: TA1535, Metabolic Activation: NONE, Method: STANDARD PLATE
[7] = Test System: AMES SALMONELLA TYPHIMURIUM, Strain/Indicator: TA1538, Metabolic Activation: NONE, Method: STANDARD PLATE
[8] = Test System: AMES SALMONELLA TYPHIMURIUM, Strain/Indicator: TA98, Metabolic Activation: RAT LIVER S-9, AROCLOR 1254, Method: STANDARD PLATE
[9] = Test System: AMES SALMONELLA TYPHIMURIUM, Strain/Indicator: TA100, Metabolic Activation: RAT LIVER S-9, AROCLOR 1254, Method: STANDARD PLATE

Question: How did the mutagenic call (Test System: UDS RAT UROTHELIAL CELLS, Strain/Indicator: THY INCORP, Metabolic Activation: NONE) turn out when `CCCCN(N=O)C(CCC)OC(C)=O` (configuration not stated) was run?
Answer: active; positive

Question: With `c1ccc2cc3c(cc2c1)c1c(c2ccccc23)O1` as the molecule, how does the mutagenic call [1] read?
Answer: active; positive

Question: How did the mutagenic call (Test System: AMES SALMONELLA TYPHIMURIUM, Strain/Indicator: TA97, Metabolic Activation: HAMSTER, LIVER, S-9, AROCLOR 1254 (10%), Method: PREINCUBATION) turn out when `C=CC(=O)NCNC(=O)C=C` was run?
Answer: inactive; negative

Question: What about the mutagenic call (Test System: AMES SALMONELLA TYPHIMURIUM, Strain/Indicator: TA97, Metabolic Activation: NONE, Method: PREINCUBATION) of the same molecule?
Answer: inactive; negative

Question: And the mutagenic call (Test System: AMES SALMONELLA TYPHIMURIUM, Strain/Indicator: TA97, Metabolic Activation: RAT, LIVER, S-9, AROCLOR 1254 (10%), Method: PREINCUBATION)?
Answer: inactive; negative

Question: What about the mutagenic call (Test System: AMES SALMONELLA TYPHIMURIUM, Strain/Indicator: TA98, Metabolic Activation: HAMSTER, LIVER, S-9, AROCLOR 1254 (10%), Method: PREINCUBATION) of the same molecule?
Answer: inactive; negative

Question: And the mutagenic call [2]?
Answer: inactive; negative

Question: What about the mutagenic call (Test System: AMES SALMONELLA TYPHIMURIUM, Strain/Indicator: TA98, Metabolic Activation: RAT, LIVER, S-9, AROCLOR 1254 (10%), Method: PREINCUBATION) of the same molecule?
Answer: inactive; negative

Question: What about the mutagenic call (Test System: AMES SALMONELLA TYPHIMURIUM, Strain/Indicator: TA100, Metabolic Activation: HAMSTER, LIVER, S-9, AROCLOR 1254 (5, 10 OR 30%), Method: PREINCUBATION) of the same molecule?
Answer: inactive; negative

Question: What about the mutagenic call [3] of the same molecule?
Answer: inactive; negative

Question: And the mutagenic call (Test System: AMES SALMONELLA TYPHIMURIUM, Strain/Indicator: TA100, Metabolic Activation: RAT, LIVER, S-9, AROCLOR 1254 (10%), Method: PREINCUBATION)?
Answer: inactive; negative

Question: What about the mutagenic call (Test System: AMES SALMONELLA TYPHIMURIUM, Strain/Indicator: TA1535, Metabolic Activation: HAMSTER, LIVER, S-9, AROCLOR 1254 (10%), Method: PREINCUBATION) of the same molecule?
Answer: active; positive

Question: What about the mutagenic call (Test System: AMES SALMONELLA TYPHIMURIUM, Strain/Indicator: TA1535, Metabolic Activation: NONE, Method: PREINCUBATION) of the same molecule?
Answer: inactive; negative

Question: What about the mutagenic call (Test System: AMES SALMONELLA TYPHIMURIUM, Strain/Indicator: TA1535, Metabolic Activation: RAT, LIVER, S-9, AROCLOR 1254 (10%), Method: PREINCUBATION) of the same molecule?
Answer: inactive; negative

Question: How did the mutagenic call [4] turn out when `O=[N+]([O-])c1ccc2ccc3cccc4c(O)cc1c2c34` was run?
Answer: active; positive

Question: What about the mutagenic call [5] of the same molecule?
Answer: active; positive

Question: How did the mutagenic call [4] turn out when `C=C1C(=O)O[C@@H]2[C@H]1CC[C@H](C)[C@@H]1C=CC(=O)[C@@]21C` was run?
Answer: inactive; negative

Question: What about the mutagenic call [5] of the same molecule?
Answer: inactive; negative

Question: What about the mutagenic call [1] of the same molecule?
Answer: inactive; negative

Question: And the mutagenic call (Test System: AMES SALMONELLA TYPHIMURIUM, Strain/Indicator: TA100, Metabolic Activation: RAT, LIVER, S-9, AROCLOR 1254, Method: STANDARD PLATE)?
Answer: inactive; negative

Question: With `Nc1cccc2cnsc12` as the molecule, how does the mutagenic call [4] read?
Answer: active; positive

Question: How did the mutagenic call (Test System: AMES SALMONELLA TYPHIMURIUM, Strain/Indicator: TA98(NR), Metabolic Activation: NONE, Method: STANDARD PLATE) turn out when `O=[N+]([O-])c1ccc(NO)cc1` was run?
Answer: active; positive

Question: What about the mutagenic call (Test System: AMES SALMONELLA TYPHIMURIUM, Strain/Indicator: TA98(NR), Metabolic Activation: RAT, LIVER, S-9, AROCLOR 1254, Method: STANDARD PLATE) of the same molecule?
Answer: inactive; negative

Question: And the mutagenic call [4]?
Answer: active; positive

Question: What about the mutagenic call [5] of the same molecule?
Answer: active; positive

Question: And the mutagenic call [1]?
Answer: active; positive

Question: And the mutagenic call [6]?
Answer: active; positive

Question: And the mutagenic call (Test System: AMES SALMONELLA TYPHIMURIUM, Strain/Indicator: TA1538(NR), Metabolic Activation: NONE, Method: STANDARD PLATE)?
Answer: active; positive

Question: And the mutagenic call (Test System: AMES SALMONELLA TYPHIMURIUM, Strain/Indicator: TA1538(NR), Metabolic Activation: RAT, LIVER, S-9, AROCLOR 1254, Method: STANDARD PLATE)?
Answer: active; positive

Question: And the mutagenic call [7]?
Answer: active; positive

Question: And the mutagenic call (Test System: AMES SALMONELLA TYPHIMURIUM, Strain/Indicator: TA1538, Metabolic Activation: RAT, LIVER, S-9, AROCLOR 1254, Method: STANDARD PLATE)?
Answer: active; positive

Question: And the mutagenic call (Test System: E. COLI, Strain/Indicator: WP2 UVRA(P), Metabolic Activation: NONE, Method: STANDARD PLATE)?
Answer: active; positive

Question: And the mutagenic call (Test System: E. COLI, Strain/Indicator: WP2 UVRA, Metabolic Activation: NONE, Method: FLUCTUATION TEST)?
Answer: active; positive

Question: And the mutagenic call (Test System: E. COLI, Strain/Indicator: WP2 UVRA, Metabolic Activation: NONE, Method: STANDARD PLATE)?
Answer: inactive; negative

Question: With `CCCCCCOCCOCCO` as the molecule, how does the mutagenic call [4] read?
Answer: inactive; negative

Question: What about the mutagenic call [8] of the same molecule?
Answer: inactive; negative

Question: And the mutagenic call [1]?
Answer: inactive; negative

Question: And the mutagenic call [9]?
Answer: inactive; negative

Question: And the mutagenic call [6]?
Answer: inactive; negative

Question: What about the mutagenic call (Test System: AMES SALMONELLA TYPHIMURIUM, Strain/Indicator: TA1535, Metabolic Activation: RAT LIVER S-9, AROCLOR 1254, Method: STANDARD PLATE) of the same molecule?
Answer: inactive; negative

Question: What about the mutagenic call (Test System: AMES SALMONELLA TYPHIMURIUM, Strain/Indicator: TA1537, Metabolic Activation: NONE, Method: STANDARD PLATE) of the same molecule?
Answer: inactive; negative

Question: What about the mutagenic call (Test System: AMES SALMONELLA TYPHIMURIUM, Strain/Indicator: TA1537, Metabolic Activation: RAT LIVER S-9, AROCLOR 1254, Method: STANDARD PLATE) of the same molecule?
Answer: inactive; negative

Question: What about the mutagenic call [7] of the same molecule?
Answer: inactive; negative

Question: What about the mutagenic call (Test System: AMES SALMONELLA TYPHIMURIUM, Strain/Indicator: TA1538, Metabolic Activation: RAT LIVER S-9, AROCLOR 1254, Method: STANDARD PLATE) of the same molecule?
Answer: inactive; negative

Question: And the mutagenic call (Test System: CHINESE HAMSTER OVARY CELLS, Strain/Indicator: CHO-K1-BH4 CELLS (HPRT)/6-THIOGUANINE, Metabolic Activation: RAT LIVER S-9, AROCLOR 1254, Method: PREINCUBATION)?
Answer: active; positive

Question: With `O=c1c(=O)c2c([N+](=O)[O-])ccc3ccc4cccc1c4c32` as the molecule, how does the mutagenic call [2] read?
Answer: active; positive

Question: What about the mutagenic call (Test System: AMES SALMONELLA TYPHIMURIUM, Strain/Indicator: TA98, Metabolic Activation: RAT, LIVER, S-9, AROCLOR 1254, Method: PREINCUBATION) of the same molecule?
Answer: active; positive

Question: What about the mutagenic call [3] of the same molecule?
Answer: active; positive

Question: And the mutagenic call (Test System: AMES SALMONELLA TYPHIMURIUM, Strain/Indicator: TA100, Metabolic Activation: RAT, LIVER, S-9, AROCLOR 1254, Method: PREINCUBATION)?
Answer: active; positive

Question: For `CC(=O)c1cc2c(cc1C)C(C)(C)C(C)C2C(C)C` (configuration not stated), which mutagenic call (Test System: AMES SALMONELLA TYPHIMURIUM, Strain/Indicator: TA97, Metabolic Activation: NONE, Method: STANDARD PLATE) is on record?
Answer: inactive; negative

Question: And the mutagenic call (Test System: AMES SALMONELLA TYPHIMURIUM, Strain/Indicator: TA97, Metabolic Activation: RAT LIVER S-9, AROCLOR 1254, Method: STANDARD PLATE)?
Answer: inactive; negative

Question: And the mutagenic call [4]?
Answer: inactive; negative

Question: And the mutagenic call [8]?
Answer: inactive; negative

Question: What about the mutagenic call [1] of the same molecule?
Answer: inactive; negative

Question: What about the mutagenic call [9] of the same molecule?
Answer: inactive; negative

Question: And the mutagenic call (Test System: AMES SALMONELLA TYPHIMURIUM, Strain/Indicator: TA102, Metabolic Activation: NONE, Method: STANDARD PLATE)?
Answer: inactive; negative

Question: And the mutagenic call (Test System: AMES SALMONELLA TYPHIMURIUM, Strain/Indicator: TA102, Metabolic Activation: RAT LIVER S-9, AROCLOR 1254, Method: STANDARD PLATE)?
Answer: inactive; negative

Reference: PubChem BioAssay AID1259407 (Chemical Carcinogenesis Research Information System (CCRIS), 2018)
